Laboratory results taken from patent US20260115250A1, “METHODS OF TREATING AGE-RELATED MACULAR DEGENERATION” (Character Biosciences, Inc., priority 2022, published 2026).

Assays:
HMC3 cells = assay: HMC3 cholesterol efflux; format: cell-based, human; conditions: HMC3, 20 μM peptide, 4 hours
Method: (§1) FIGS. 27A-27B and FIG. 28 illustrate HMC3 cholesterol efflux. Fully confluent 96-well plates of HMC3 cells were treated for 1 hour in serum-free EMEM containing 10 mM methyl-β-cyclodextrin, 100 μM cholesterol, and 25 μM BODIPY cholesterol. Cells were then washed and incubated overnight in serum free EMEM containing 1 μM LXR agonist GW3965, 2 μg/mL ACAT inhibitor, and 0.2% BSA (LXR Agonist treated), or serum-free EMEM containing 2 μg/mL ACAT inhibitor, and 0.2% BSA (Control). Cells were washed and incubated with 20 μM peptides diluted in serum-free Fluorobrite DMEM for 4 hours at 37° C. Media was transferred to a new 96-well plate and fresh serum-free Fluorobrite DMEM was placed on the cells. Media and cellular fluorescence were read on a Promega GloMax at 475 nm excitation, 500-550 emission. Fluorescence values were background corrected from no treatment conditions and percent efflux was calculated by the following equation: % efflux=(Media Fluorescence values)/(Media+Cell Fluorescence values). Data are presented as mean+SD over two runs per peptide.
as §1, with “FIGS. 30A-30J show” for “FIGS. 27A-27B and FIG. 28 illustrate”, “cholesterol efflux titration curves for the indicated peptides.” for “cholesterol efflux.”, “μM” for “μM LXR agonist”, “or serum free” for “or serum-free”, “with 0-100” for “with 20”, “peptides serially” for “peptides”

ABCA1 = molecular target: T1, ABCA1 (Homo sapiens, UniProt O95477); assay: membrane ABCA1 stability testing in ARPE-19 cells treated with mCRP; format: cell-based; conditions: ARPE-19, mCRP, 20 μM peptide, 24 hours
T1 construct: endogenous in cells; host or cells: ARPE-19
Method: ARPE-19 cells were seeded at 100,000 cells per well on 12-well plates and were allowed to grow to confluence. To prepare monomeric CRP (mCRP), recombinant CRP was prepared in a PBS solution containing 8 M Urea and 10 mM EDTA and incubated at 37° C. for 2 hours prior to desalting with a Zeba spin column (7K MW cutoff). mCRP was prepared to a 2× solution of 20 μg/mL. A 2× solution of 40 μM peptides was prepared in serum-free DMEM and serially diluted 1:2 over 4 concentrations. mCRP and peptides were added 1:1 to cells for 24 hours at 37° C. before isolating membrane protein and measuring membrane ABCA1 levels by western blot. Blots were quantified in ImageJ. Signals were further normalized to the LXR agonist treated group to determine percent (%) ABCA1 remaining. Treatment with LXR agonist increased membrane ABCA1 levels in this assay, but following treatment with mCRP, membrane ABCA1 levels were decreased.
FIGS. 35 and 36 show membrane ABCA1 stability testing using ARPE-19 cells. ARPE-19 cells were seeded at 100,000 cells per well on 12-well plates and were allowed to grow to confluence. To prepare monomeric CRP (mCRP), recombinant CRP was prepared in a PBS solution containing 8 M Urea and 10 mM EDTA and incubated at 37° C. for 2 hours prior to desalting with a Zeba spin column (7K MW cutoff). mCRP was prepared to a 2× solution of 20 μg/mL. A 2× solution of 40 μM peptides was prepared in serum-free DMEM. CRP and peptides were added 1:1 to cells for 24 hours at 37° C. before isolating membrane protein and measuring membrane ABCA1 levels by western blot. Blots were quantified in ImageJ. In FIG. 35, Signals were further normalized to the T-087 treated group to determine percent (%) ABCA1 levels compared to peptide T-087 treated cells. In FIG. 36, Signals were further normalized to the peptide T-101 treated group to determine percent (%) ABCA1 levels compared to peptide T-101 treated cells.

[1] = DMPC solubility assay, 0.5 mM DMPC (turbidity reduction); format: biochemical; conditions: for DMPC solubilizing activity: FIGS. 2A-2D and 3A-3C
Method: In this example, peptide stocks were diluted to 200 μM in H2O (a 2× solution) and 50 μL of peptide solution was transferred in triplicate into 96-well plates. A one mM solution of 1,2-dimyristoyl-sn-glycero-3-phosphocholine (DMPC) in H2O was prepared, and using a multichannel pipet, 50 μL DMPC solution was rapidly added to the plate. Peptide and lipid solutions were incubated at room temperature for 15 minutes with a final concentration of 100 μM peptides and 0.5 mM DMPC. After 15 minutes, absorbance was read on a plate reader at 405 nm. […] Data are presented as mean+SD over two runs.
In these experiments, DMPC solubility titration curves were generated. Peptide stocks were diluted to 200 μM in H2O (a 2× solution) and serially diluted in H2O over 4 concentrations, then 50 μL of peptide solutions were distributed in triplicate into 96-well plates. A 1 mM solution of 1,2-dimyristoyl-sn-glycero-3-phosphocholine (DMPC) in H2O was prepared, and using a multichannel pipet, 50 μL DMPC solution was rapidly added to the plate. Peptide and lipid solutions were incubated at room temperature for 15 minutes with final concentrations of 3.16-100 μM peptides and 0.5 mM DMPC. After 15 minutes, absorbance was read on a plate reader at 405 nm. […] Data are presented as mean+SD over two runs. Non-linear regression was used to calculate EC50 values.

T1 sequence (O95477 whole entry): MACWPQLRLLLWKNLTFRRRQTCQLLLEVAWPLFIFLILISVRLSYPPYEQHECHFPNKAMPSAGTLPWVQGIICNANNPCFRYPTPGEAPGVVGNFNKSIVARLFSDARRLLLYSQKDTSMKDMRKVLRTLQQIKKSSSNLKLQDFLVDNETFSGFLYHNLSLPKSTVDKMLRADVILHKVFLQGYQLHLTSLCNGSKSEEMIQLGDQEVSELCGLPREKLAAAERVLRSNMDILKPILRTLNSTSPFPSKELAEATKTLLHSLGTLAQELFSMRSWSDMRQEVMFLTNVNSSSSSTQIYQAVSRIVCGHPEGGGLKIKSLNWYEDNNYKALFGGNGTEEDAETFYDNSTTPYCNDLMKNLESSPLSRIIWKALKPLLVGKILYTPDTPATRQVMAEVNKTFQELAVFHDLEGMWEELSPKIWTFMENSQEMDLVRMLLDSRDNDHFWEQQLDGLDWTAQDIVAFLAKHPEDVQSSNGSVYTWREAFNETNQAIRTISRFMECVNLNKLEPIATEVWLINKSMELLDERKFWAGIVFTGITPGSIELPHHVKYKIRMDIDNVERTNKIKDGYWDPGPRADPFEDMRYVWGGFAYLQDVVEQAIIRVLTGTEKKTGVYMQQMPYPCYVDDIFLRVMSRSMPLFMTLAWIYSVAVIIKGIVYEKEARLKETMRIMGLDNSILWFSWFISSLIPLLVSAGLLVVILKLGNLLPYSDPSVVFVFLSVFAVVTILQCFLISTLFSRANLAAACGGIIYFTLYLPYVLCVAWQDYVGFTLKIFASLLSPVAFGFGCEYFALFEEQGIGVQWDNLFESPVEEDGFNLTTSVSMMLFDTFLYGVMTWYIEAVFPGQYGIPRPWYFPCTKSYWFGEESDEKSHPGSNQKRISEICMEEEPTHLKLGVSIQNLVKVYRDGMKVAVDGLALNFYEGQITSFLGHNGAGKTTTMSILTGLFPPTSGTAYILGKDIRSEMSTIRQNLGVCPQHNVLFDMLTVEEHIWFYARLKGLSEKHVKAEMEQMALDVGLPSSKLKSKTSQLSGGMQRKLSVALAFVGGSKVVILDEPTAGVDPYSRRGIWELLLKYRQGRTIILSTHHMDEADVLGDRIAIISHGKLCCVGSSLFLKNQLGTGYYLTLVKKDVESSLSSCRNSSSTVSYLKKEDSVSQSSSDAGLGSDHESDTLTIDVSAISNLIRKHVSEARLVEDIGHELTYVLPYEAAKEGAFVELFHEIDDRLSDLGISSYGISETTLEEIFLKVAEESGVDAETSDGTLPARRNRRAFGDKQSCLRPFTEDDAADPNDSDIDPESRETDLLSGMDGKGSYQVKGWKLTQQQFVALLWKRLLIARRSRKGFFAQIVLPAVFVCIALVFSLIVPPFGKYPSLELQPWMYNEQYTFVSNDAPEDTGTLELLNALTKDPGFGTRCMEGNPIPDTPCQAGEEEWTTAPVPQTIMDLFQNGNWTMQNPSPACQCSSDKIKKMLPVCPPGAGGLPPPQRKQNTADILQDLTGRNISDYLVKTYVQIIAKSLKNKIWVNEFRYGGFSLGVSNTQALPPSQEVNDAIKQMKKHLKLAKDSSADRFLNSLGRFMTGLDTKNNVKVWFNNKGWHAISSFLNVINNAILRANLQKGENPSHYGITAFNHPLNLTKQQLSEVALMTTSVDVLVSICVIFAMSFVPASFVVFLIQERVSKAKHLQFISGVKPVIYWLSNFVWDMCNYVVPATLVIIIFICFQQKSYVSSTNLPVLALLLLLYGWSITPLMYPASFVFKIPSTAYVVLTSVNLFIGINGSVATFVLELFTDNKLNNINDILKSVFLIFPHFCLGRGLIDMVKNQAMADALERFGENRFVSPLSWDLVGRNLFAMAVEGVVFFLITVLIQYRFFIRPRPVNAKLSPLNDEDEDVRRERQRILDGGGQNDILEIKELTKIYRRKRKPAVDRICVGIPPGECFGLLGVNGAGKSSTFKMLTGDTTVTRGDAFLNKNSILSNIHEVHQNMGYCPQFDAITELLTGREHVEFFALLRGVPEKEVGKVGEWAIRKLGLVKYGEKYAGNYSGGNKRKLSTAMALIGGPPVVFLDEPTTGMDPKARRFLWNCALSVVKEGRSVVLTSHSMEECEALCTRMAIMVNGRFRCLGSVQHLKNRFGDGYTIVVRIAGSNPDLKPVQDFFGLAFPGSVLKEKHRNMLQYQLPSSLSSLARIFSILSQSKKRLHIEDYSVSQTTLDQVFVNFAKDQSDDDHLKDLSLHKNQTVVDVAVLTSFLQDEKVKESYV

| Substance | cholesterol efflux in the presence of LXR agonist (HMC3 cells) | membrane ABCA1 levels compared to peptide T-101 treated cells (ABCA1) | also measured |
| --- | --- | --- | --- |
| T-140: variant of peptide T-101 (RSGADALESALKELKRFIRAWT) | greater cholesterol efflux |  |  |
| T-128: variant of peptide T-101 (RSGADALASALKELKRFIREWT) | greater cholesterol efflux | reduction of membrane ABCA1 levels |  |
| T-019: therapeutic peptide (NMDEINKRLHAYEEGVKKAADE) |  |  | DMPC solubilizing activity [1]: significant activity |
| T-126: variant of peptide T-101 (RSGADPLESALKELKRFIREWT) | greater cholesterol efflux | reduction of membrane ABCA1 levels |  |
| T-099: therapeutic peptide (RRMKDYLKKFQETLKREFRDWE) |  |  | DMPC solubilizing activity [1]: did not have significant solubilizing activity |
| T-026: therapeutic peptide (GFGDWIDSIEAFSRSLHS) |  |  | DMPC solubilizing activity [1]: significant activity |
| T-017: therapeutic peptide (PLRAELQEGARQKLHELQEKLSPPLRAELQEGARQKLHELQEKLS) |  |  | DMPC solubilizing activity [1]: did not have significant solubilizing activity |
| T-145: variant of peptide T-101 (RSGADALESGLKELKRFIREWT) | greater cholesterol efflux | reduction of membrane ABCA1 levels |  |
| T-132: variant of peptide T-101 (RSGADALESALAELKRFIREWT) |  | reduction of membrane ABCA1 levels |  |
| HLRKLRKRLLRDGDKLQDRLAEYQAGAKEAFDR [T-054, therapeutic peptide] |  |  | EC50 ([1]; 3.16-100 μM peptides, 15 minutes): 123 µM |
| T-141: variant of peptide T-101 (RSGADALESALKELKRFIREAT) | greater cholesterol efflux | reduction of membrane ABCA1 levels |  |
| T-005: therapeutic peptide (PLRAELQEGARQKLHELQEKLS) |  |  | DMPC solubilizing activity [1]: did not have significant solubilizing activity |
| T-134: variant of peptide T-101 (RSGADALESALKEAKRFIREWT) | greater cholesterol efflux | reduction of membrane ABCA1 levels |  |
| T-130: variant of peptide T-101 (RSGADALESPLKELKRFIREWT) |  | reduction of membrane ABCA1 levels |  |
| T-173: variant of peptide T-087 (AAAERFRALFKELADYFR) |  |  | membrane ABCA1 levels compared to peptide T-087 treated cells (ABCA1): reduction of membrane ABCA1 levels |
| T-151: variant of peptide T-101 (RSGADALESALKELKRFIRAAA) | greater cholesterol efflux |  |  |

| Substance | cholesterol efflux in the presence of LXR agonist (HMC3 cells) | membrane ABCA1 levels compared to peptide T-101 treated cells (ABCA1) | also measured |
| --- | --- | --- | --- |
| T-135: variant of peptide T-101 (RSGADALESALKELARFIREWT) | greater cholesterol efflux | reduction of membrane ABCA1 levels |  |
| T-127: variant of peptide T-101 (RSGADAAESAAKELKRFIREWT) |  | reduction of membrane ABCA1 levels |  |
| T-148: variant of peptide T-101 (RSGADALESAAAALKRFIREWT) | greater cholesterol efflux | reduction of membrane ABCA1 levels |  |
| T-121: variant of peptide T-101 (ASGADALESALKELKRFIREWT) | greater cholesterol efflux | reduction of membrane ABCA1 levels |  |
| T-104: therapeutic peptide (TVRGSADALLEHLTRAWDGFNR) |  | reduction of membrane ABCA1 levels |  |
| T-144: variant of peptide T-101 (RSGADGLESALKELKRFIREWT) | greater cholesterol efflux |  |  |
| T-177: variant of peptide T-087 (DAWERFRALFKEAAAYFR) |  |  | membrane ABCA1 levels compared to peptide T-087 treated cells (ABCA1): reduction of membrane ABCA1 levels |
| T-124: variant of peptide T-101 (RSGPDALESALKELKRFIREWT) | greater cholesterol efflux | reduction of membrane ABCA1 levels |  |
| T-137: variant of peptide T-101 (RSGADALESALKELKRAIREWT) | greater cholesterol efflux | reduction of membrane ABCA1 levels |  |
| T-143: variant of peptide T-101 (RSGGDALESALKELKRFIREWT) | greater cholesterol efflux |  |  |
| T-142: variant of peptide T-101 (RSGADALESALKELKRFIREWA) | greater cholesterol efflux |  |  |
| T-149: variant of peptide T-101 (RSGADALESALKEAAAFIREWT) | greater cholesterol efflux | reduction of membrane ABCA1 levels |  |
| T-138: variant of peptide T-101 (RSGADALESALKELKRFAREWT) | greater cholesterol efflux | reduction of membrane ABCA1 levels |  |
| T-150: variant of peptide T-101 (RSGADALESALKELKRAAAEWT) | greater cholesterol efflux | reduction of membrane ABCA1 levels |  |
| T-146: variant of peptide T-101 (AAAADALESALKELKRFIREWT) | greater cholesterol efflux |  |  |
